Results reported in paper PMC3917480 (Bioorganic & medicinal chemistry, 2013).
Where a SMILES comes first, the peptide text is derived from it. The star is where a group is joined. X3 = O=C(c1ccc(N2CCNCC2)cn1)*; X5 = CC(C)COc1cccc(CC(=O)*)c1; X6 = CCCOc1cccc(CC(=O)*)c1; X2 = CCOc1cccc(CC(=O)*)c1

What was measured:
CDK4/cyclin D1 = CDK4/cyclin D1 (Homo sapiens, UniProt P24385); test: CDK4D1 fluorescence polarization competitive binding assay; conditions: for binding affinity (in words), CDK4D1: FLIP context
CDK2/cyclin A = CDK2/cyclin A (Homo sapiens, UniProt P20248); test: CDK2A2 fluorescence polarization competitive binding assay; conditions: FLIP context

CDK4/cyclin D1, sequence (P24385 whole entry): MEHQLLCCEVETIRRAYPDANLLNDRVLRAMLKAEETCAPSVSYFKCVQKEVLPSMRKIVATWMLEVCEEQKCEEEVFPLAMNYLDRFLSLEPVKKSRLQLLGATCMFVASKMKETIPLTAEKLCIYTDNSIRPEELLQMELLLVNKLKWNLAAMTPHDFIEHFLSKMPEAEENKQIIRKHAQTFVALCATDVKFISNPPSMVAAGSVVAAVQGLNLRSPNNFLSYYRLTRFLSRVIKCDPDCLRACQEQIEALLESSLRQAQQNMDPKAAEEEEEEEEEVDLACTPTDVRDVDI
CDK4/cyclin D1, sequence (P11802 whole entry partner): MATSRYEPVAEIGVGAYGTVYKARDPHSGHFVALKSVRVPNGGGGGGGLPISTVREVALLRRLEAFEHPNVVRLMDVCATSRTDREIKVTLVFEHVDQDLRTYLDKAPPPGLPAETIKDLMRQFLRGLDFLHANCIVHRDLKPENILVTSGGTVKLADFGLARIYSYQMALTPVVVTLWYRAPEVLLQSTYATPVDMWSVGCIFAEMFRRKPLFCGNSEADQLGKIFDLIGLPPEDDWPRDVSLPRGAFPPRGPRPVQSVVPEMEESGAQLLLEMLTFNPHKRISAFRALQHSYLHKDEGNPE

Compound	binding affinity (in words), CDK4D1 (CDK4/cyclin D1)	binding affinity (in words), CDK2A2 (CDK2/cyclin A)	increased potency relative to 525 in CDK4D1 (CDK4/cyclin D1; relative to 525) [fold]
CCCOc1cccc(CC(=O)N[C@@H](CCCNC(=N)N)C(=O)N[C@@H](CC(C)C)C(=O)N[C@H](C(=O)N[C@@H](Cc2ccccc2)C(N)=O)[C@@H](C)CC)c1 [compound 5853] (X6-RLIF-NH2)	None of these analogs in the FLIP context possessed appreciable binding affinity	None of these analogs in the FLIP context possessed appreciable binding affinity	–
CCOc1cccc(CC(=O)N[C@@H](CCCNC(=N)N)C(=O)N[C@@H](CC(C)C)C(=O)N[C@H](C(=O)N[C@@H](Cc2ccccc2)C(N)=O)[C@@H](C)CC)c1 [compound 5854] (X2-RLIF-NH2)	None of these analogs in the FLIP context possessed appreciable binding affinity	None of these analogs in the FLIP context possessed appreciable binding affinity	–
CC[C@H](C)[C@H](NC(=O)[C@H](CC(C)C)NC(=O)[C@H](CCCNC(=N)N)NC(=O)Cc1cccc(OCC(C)C)c1)C(=O)N[C@@H](Cc1ccccc1)C(N)=O [compound 5855] (X5-RLIF-NH2)	None of these analogs in the FLIP context possessed appreciable binding affinity	None of these analogs in the FLIP context possessed appreciable binding affinity	–
CC[C@H](C)[C@H](NC(=O)[C@H](CC(C)C)NC(=O)[C@H](CCCNC(=N)N)NC(=O)c1ccc(N2CCNCC2)cn1)C(=O)N[C@@H](Cc1ccccc1)C(N)=O [compound 5856] (X3-RLIF-NH2)	–	–	2
